Experimental data reported in US20090131513A1, “ANTI-INFLAMMATORY MODALITIES” (Novogen Research Pty Ltd., priority 2005, published 2009).

Columns and labels:
[1] = Stability of formulation in CMC 0.1%; assay type: physicochemical; conditions: seven day period, 4° C., 25° C. and 40° C.
Experimental: The formulation of Compound 1 in CMC 0.1% was stable over a seven day period at both 4° C., 25° C. and 40° C. Fresh batches of Compound 1 were supplied after day seven. Bodyweights were measured immediately before administration, then at day eight and again at culling on day 12. All rats were observed daily for signs of toxicity throughout the experimental period. At necropsy, gross examination of the external surface of the body, all orifices and the thoracic and abdominal cavities and their contents was carried out. Liver, kidney, adrenals, spleen and gonads were weighed. Terminal hematology, serum biochemistry and histology of the liver, spleen and bone marrow was done.

NFκB promoter activity = assay: Inhibition of NFκB promoter activity (β-lactamase reporter) in TNFα-stimulated THP-1 cells; assay type: cell-based, human; conditions: 5 h
Experimental: Human macrophage THP-1 cells, modified to include the β-lactamase reporter gene, were seeded into wells of a 96-well plate (50×10^3 cells/well) in the presence of RPMI 1640 medium (70 μl). TNFα (7.5 ng/ml) and human sera (final concentration of 20%) were added to each well. Plates were incubated for 5 h at 37° C. to allow for NFkB-stimulated β-lactamase production. LiveBLAzer™ FRET B/G Substrate (CCF4-AM) was then added to assay for β-lactamase activity. Once CCFA-AM enters a cell, it is converted to negatively charged CCF4 by endogenous esterases. Excitation of this substrate at 409 nm leads to efficient FRET between the coumarin and fluorescein moieties, resulting in a green fluorescence detectable at 530 nm. The presence of β-lactamase leads to cleavage of CCF4 and results in a loss of FRET, resulting in a robust blue fluorescent signal detectable at 460 nm. Thus, activity of beta-lactamase (a marker of NFkB-promoter activity) is measured as a product to substrate ratio (blue/green fluorescence ratio: 460 nm/530 nm).

O=C1c2ccc(O)c(Br)c2OCC1c1ccc(O)cc1 (centres unmarked) [Compound 1, 3-(4-hydroxyphenyl)-7-hydroxy-8-bromo-chroman-4-one]
stability of the formulation [1]: stable

Oc1ccc(C2COc3c(ccc(O)c3O)C2O)cc1 (centres unmarked) [Compound 2]
inhibition of NFκB compared to vehicle control (NFκB promoter activity): significantly (p<0.001) inhibited
